According to patent US8822506B2, “Use of succinate dehydrogenase inhibitors for controlling powdery mildew primary infections” (Bayer Cropscience AG, priority 2009, dated 2014):

Legend:
Format in all cases: in vivo, Podosphera leucotricha
Powdery mildew [1] = test: Apple orchard field trial, powdery mildew primary infection of shoots in the following year, assessed 345 days after application 8; conditions: proximate year (assessment 345DAT8), without any other application; dose rate relation, 18.5 to 50 g a.s./m c.h.
Powdery mildew [2] = test: Apple orchard field trial, powdery mildew secondary infections on leaves (incidence), assessed 10 days after application 8; conditions: for 10DAT8 [% infested leaves] / 10DAT8 [% efficacy] (Abbott): apples, 10 days after application 8; for 10DAT8 [% infested leaves]: 8 applications at 10-day interval, untreated 96; for 10DAT8 [% efficacy] (Abbott): 8 applications, infested leaves
Description: (§1) Fluopyram was tested in apples orchard in comparison with already know fungicides active against Powdery mildew such as triadimenol (Bayleton) and boscalid.
(§2) Fluopyram was applied at range of rates: 18.5 g-25 g-37.5-50 g a.s./ha/meter canopy height (g ha/m c.h.). Bayleton was applied at 25 g a.s./ha/m c.h. Boscalid (Cantus WG50) was applied at 125 g a.s./m c.h.
(§3) During the spray season, the compounds were applied at apple susceptible stages from BBCH09 (green leaf tips 5 mm above bud scales to BBCH73 Fruit size between 20 and 40 mm (as described in BBCH Monograph, 2. Edition, 2001, edited by Uwe Meier, Federal Biological Research Centre for Agriculture and Forestry) in order to protect leaves, buds and shoots against Powdery mildew. The compounds have been applied eight times with an interval of ten days during spray season.
(§4) The type of assessments of infections was: • % infested area on leaves (severity) and % infested leaves (incidence) were assessed 10 days after application 8 (10DAT8). • Count and % infested shoots (primary infection) were assessed 345 days after application 8 (345 DAT8). Results

Powdery mildew [3] = test: Apple orchard field trial, powdery mildew primary infection of shoots in the following year, assessed 345 days after application 8; conditions: apples, 8 applications; for 345DAT8 [% infested shoots]: 345 days after application 8, no other application, untreated 45.2; for 345DAT8 [% efficacy] (Abbott): 345 days after application 8, infested shoots
Description: as §1, §2, §3, §4

SMILES: O=C(NCCc1ncc(C(F)(F)F)cc1Cl)c1ccccc1C(F)(F)F [Fluopyram, N-{2-[3-chloro-5-(trifluoromethyl)-2-pyridinyl]ethyl}-2-(trifluoromethyl)benzamide]
- level of infection measured by the % of primary infested shoots (in words) (Powdery mildew [1]): high decrease of infestation
- 10DAT8 [% infested leaves] (Powdery mildew [2]; 18.5 g a.s./ha/m c.h.): 8.7%
- 10DAT8 [% efficacy] (Abbott) (Powdery mildew [2]; 18.5 g a.s./ha/m c.h.): 91%
- 10DAT8 [% infested leaves] (Powdery mildew [2]; 25 g a.s./ha/m c.h.): 10%
- 10DAT8 [% efficacy] (Abbott) (Powdery mildew [2]; 25 g a.s./ha/m c.h.): 89.6%
- 10DAT8 [% infested leaves] (Powdery mildew [2]; 37.5 g a.s./ha/m c.h.): 2.7%
- 10DAT8 [% efficacy] (Abbott) (Powdery mildew [2]; 37.5 g a.s./ha/m c.h.): 97.2%
- 10DAT8 [% infested leaves] (Powdery mildew [2]; 50 g a.s./ha/m c.h.): 0.7%
- 10DAT8 [% efficacy] (Abbott) (Powdery mildew [2]; 50 g a.s./ha/m c.h.): 99.3%
- efficacy against powdery mildew on apples against secondary infections (in words) (Powdery mildew [2]; assessment 10DAT8, 18.5 g to 50 g a.s./m c.h., visible dose rate effect, superior to triadimenol and boscalid from the lowest rate): excellent efficacy
- 345DAT8 [% infested shoots] (Powdery mildew [3]; 18.5 g a.s./ha/m c.h.): 17.7%
- 345DAT8 [% efficacy] (Abbott) (Powdery mildew [3]; 18.5 g a.s./ha/m c.h.): 60.9%
- 345DAT8 [% infested shoots] (Powdery mildew [3]; 25 g a.s./ha/m c.h.): 14%
- 345DAT8 [% efficacy] (Abbott) (Powdery mildew [3]; 25 g a.s./ha/m c.h.): 69%
- 345DAT8 [% infested shoots] (Powdery mildew [3]; 37.5 g a.s./ha/m c.h.): 13%
- 345DAT8 [% efficacy] (Abbott) (Powdery mildew [3]; 37.5 g a.s./ha/m c.h.): 71.2%
- 345DAT8 [% infested shoots] (Powdery mildew [3]; 50 g a.s./ha/m c.h.): 9%
- 345DAT8 [% efficacy] (Abbott) (Powdery mildew [3]; 50 g a.s./ha/m c.h.): 80.1%

SMILES: CC(C)(C)C(O)C(Oc1ccc(Cl)cc1)n1cncn1 (centres unmarked) [Triadimenol]
- 10DAT8 [% infested leaves] (Powdery mildew [2]; 25 g a.s./ha/m c.h.): 32%
- 10DAT8 [% efficacy] (Abbott) (Powdery mildew [2]; 25 g a.s./ha/m c.h.): 66.7%
- 345DAT8 [% infested shoots] (Powdery mildew [3]; 25 g a.s./ha/m c.h.): 27.5%
- 345DAT8 [% efficacy] (Abbott) (Powdery mildew [3]; 25 g a.s./ha/m c.h.): 39.1%

SMILES: O=C(Nc1ccccc1-c1ccc(Cl)cc1)c1cccnc1Cl [Boscalid, 2-chloro-N-(4′-chlorobiphenyl-2-yl)nicotinamide]
- 10DAT8 [% infested leaves] (Powdery mildew [2]; 125 g a.s./ha/m c.h.): 46%
- 10DAT8 [% efficacy] (Abbott) (Powdery mildew [2]; 125 g a.s./ha/m c.h.): 52.1%
- 345DAT8 [% infested shoots] (Powdery mildew [3]; 125 g a.s./ha/m c.h.): 30.8%
- 345DAT8 [% efficacy] (Abbott) (Powdery mildew [3]; 125 g a.s./ha/m c.h.): 31.7%
